According to ChEMBL document CHEMBL2384949, “Nitroimidazolyl hydrazones are better amoebicides than their cyclized 1,3,4-oxadiazoline analogues: In vitro studies and Lipophilic efficiency analysis” (Eur J Med Chem, 2013):
pIC50: −log10 of the molar value.

Columns and labels:
Entamoeba histolytica = assay: Antiamoebic activity against Entamoeba histolytica HM-1:IMSS trophozoites after 72 hrs by microdilution method; type: functional, organism-based; details: for pIC50: read-out: IC50; for IC50: read-out: pIC50 (converted)
[1] = Cytotoxicity against human HepG2 cells assessed as cell viability at 100 uM after 48 hrs by MTT assay; type: cell-based; details: read-out: Activity
HepG2 [2] = assay: Cytotoxicity against human HepG2 cells assessed as cell viability at 50 to 100 uM after 48 hrs by MTT assay; type: cell-based; details: hepg2, 48 h
[3] = Cytotoxicity against human HepG2 cells assessed as cell viability up to 25 uM after 48 hrs by MTT assay; type: cell-based; details: read-out: Activity
[4] = Cytotoxicity against human HepG2 cells assessed as cell viability at 3.13 uM after 48 hrs by MTT assay; type: cell-based; details: read-out: Activity
HepG2 [5] = assay: Cytotoxicity against human HepG2 cells after 48 hrs by MTT assay; type: cell-based; details: for pIC50: Homo sapiens, HepG2, 48 h; for Activity: human, hepg2, 48 h
[6] = Safety index, ratio of IC50 for human HepG2 cells to IC50 for Entamoeba histolytica HM-1:IMSS trophozoites

Compound: Cc1ncc([N+](=O)[O-])n1CC(=O)N/N=C/c1ccc(C(C)C)cc1
- pIC50 (Entamoeba histolytica): 5.43
- IC50 (Entamoeba histolytica): 3.68 µM

Compound: CCOc1ccc(/C=N/NC(=O)Cn2c([N+](=O)[O-])cnc2C)cc1
- viability at 48 h, 100 µM [1]: ≥ 68%
- Activity (HepG2 [2]): Non-toxic
- viability at 48 h [3]: ≥ 88%
- viability at 48 h, 3.13 µM [4]: 98%
- pIC50 (HepG2 [5]): < 4.00
- Activity (HepG2 [5]): Dose-dependent effect
- selectivity ratio ([6]; HepG2 cells): > 60.6
- pIC50 (Entamoeba histolytica): 5.78
- IC50 (Entamoeba histolytica): 1.65 µM

Compound: CCc1ccc(/C=N/NC(=O)Cn2c([N+](=O)[O-])cnc2C)cc1
- viability at 48 h, 100 µM [1]: ≥ 68%
- Activity (HepG2 [2]): Non-toxic
- viability at 48 h [3]: ≥ 88%
- viability at 48 h, 3.13 µM [4]: 98%
- pIC50 (HepG2 [5]): < 4.00
- Activity (HepG2 [5]): Dose-dependent effect
- selectivity ratio ([6]; HepG2 cells): > 75.8
- pIC50 (Entamoeba histolytica): 5.88
- IC50 (Entamoeba histolytica): 1.32 µM

Compound: Cc1ncc([N+](=O)[O-])n1CC(=O)N/N=C/c1cccc(Cl)c1
- pIC50 (Entamoeba histolytica): 5.42
- IC50 (Entamoeba histolytica): 3.83 µM

Compound: Cc1ncc([N+](=O)[O-])n1CCO [METRONIDAZOLE]
- viability at 48 h, 100 µM [1]: ≥ 68%
- Activity (HepG2 [2]): Non-toxic
- viability at 48 h [3]: ≥ 88%
- viability at 48 h, 3.13 µM [4]: 98%
- pIC50 (HepG2 [5]): < 4.00
- Activity (HepG2 [5]): Dose-dependent effect
- selectivity ratio ([6]; hepg2): > 55.5

Compound: CC(=O)N1N=C(Cn2c([N+](=O)[O-])cnc2C)OC1c1ccccc1 (stereo not drawn)
- pIC50 (Entamoeba histolytica): 5.01
- IC50 (Entamoeba histolytica): 9.84 µM

Compound: Cc1ncc([N+](=O)[O-])n1CC(=O)N/N=C/c1ccccc1Cl
- pIC50 (Entamoeba histolytica): 5.41
- IC50 (Entamoeba histolytica): 3.86 µM

Compound: CCOc1ccc(C2OC(Cn3c([N+](=O)[O-])cnc3C)=NN2C(C)=O)cc1 (stereo not drawn)
- pIC50 (Entamoeba histolytica): 5.63
- IC50 (Entamoeba histolytica): 2.32 µM

Compound: CC(=O)N1N=C(Cn2c([N+](=O)[O-])cnc2C)OC1c1ccc(C(C)C)cc1 (stereo not drawn)
- pIC50 (Entamoeba histolytica): 5.31
- IC50 (Entamoeba histolytica): 4.89 µM

Compound: Cc1ccc(C)c(/C=N/NC(=O)Cn2c([N+](=O)[O-])cnc2C)c1
- pIC50 (Entamoeba histolytica): 5.59
- IC50 (Entamoeba histolytica): 2.58 µM

Compound: COc1ccc(OC)c(C2OC(Cn3c([N+](=O)[O-])cnc3C)=NN2C(C)=O)c1 (stereo not drawn)
- pIC50 (Entamoeba histolytica): 5.34
- IC50 (Entamoeba histolytica): 4.62 µM

Compound: CC(=O)N1N=C(Cn2c([N+](=O)[O-])cnc2C)OC1c1cccc(Cl)c1 (stereo not drawn)
- pIC50 (Entamoeba histolytica): 5.20
- IC50 (Entamoeba histolytica): 6.32 µM

Compound: CC(=O)N1N=C(Cn2c([N+](=O)[O-])cnc2C)OC1c1ccc(C)cc1 (stereo not drawn)
- pIC50 (Entamoeba histolytica): 5.61
- IC50 (Entamoeba histolytica): 2.48 µM

Compound: Cc1ncc([N+](=O)[O-])n1CC(=O)N/N=C/c1ccc(Cl)cc1
- pIC50 (Entamoeba histolytica): 5.44
- IC50 (Entamoeba histolytica): 3.65 µM

Compound: COc1ccc(OC)c(/C=N/NC(=O)Cn2c([N+](=O)[O-])cnc2C)c1
- pIC50 (Entamoeba histolytica): 5.58
- IC50 (Entamoeba histolytica): 2.64 µM

Compound: COc1cc(/C=N/NC(=O)Cn2c([N+](=O)[O-])cnc2C)cc(OC)c1OC
- pIC50 (Entamoeba histolytica): 5.39
- IC50 (Entamoeba histolytica): 4.12 µM

Compound: Cc1ccc(/C=N/NC(=O)Cn2c([N+](=O)[O-])cnc2C)cc1
- viability at 48 h, 100 µM [1]: ≥ 68%
- Activity (HepG2 [2]): Non-toxic
- viability at 48 h [3]: ≥ 88%
- viability at 48 h, 3.13 µM [4]: 98%
- pIC50 (HepG2 [5]): < 4.00
- Activity (HepG2 [5]): Dose-dependent effect
- selectivity ratio ([6]; HepG2 cells): > 104
- pIC50 (Entamoeba histolytica): 6.02
- IC50 (Entamoeba histolytica): 0.962 µM

Compound: CC(=O)N1N=C(Cn2c([N+](=O)[O-])cnc2C)OC1c1ccc(Cl)cc1 (stereo not drawn)
- pIC50 (Entamoeba histolytica): 5.27
- IC50 (Entamoeba histolytica): 5.41 µM

Compound: CC(=O)N1N=C(Cn2c([N+](=O)[O-])cnc2C)OC1c1cc(C)ccc1C (stereo not drawn)
- pIC50 (Entamoeba histolytica): 5.36
- IC50 (Entamoeba histolytica): 4.39 µM

Compound: Cc1ncc([N+](=O)[O-])n1CC(=O)N/N=C/c1ccccc1
- pIC50 (Entamoeba histolytica): 5.37
- IC50 (Entamoeba histolytica): 4.29 µM

Compound: COc1ccc(C2OC(Cn3c([N+](=O)[O-])cnc3C)=NN2C(C)=O)cc1 (stereo not drawn)
- pIC50 (Entamoeba histolytica): 5.66
- IC50 (Entamoeba histolytica): 2.18 µM

Compound: CC(=O)N1N=C(Cn2c([N+](=O)[O-])cnc2C)OC1c1ccccc1Cl (stereo not drawn)
- pIC50 (Entamoeba histolytica): 5.16
- IC50 (Entamoeba histolytica): 6.85 µM

Compound: COc1cc(C2OC(Cn3c([N+](=O)[O-])cnc3C)=NN2C(C)=O)cc(OC)c1OC (stereo not drawn)
- pIC50 (Entamoeba histolytica): 5.24
- IC50 (Entamoeba histolytica): 5.82 µM

Compound: COc1ccc(/C=N/NC(=O)Cn2c([N+](=O)[O-])cnc2C)cc1
- viability at 48 h, 100 µM [1]: ≥ 68%
- Activity (HepG2 [2]): Non-toxic
- viability at 48 h [3]: ≥ 88%
- viability at 48 h, 3.13 µM [4]: 98%
- pIC50 (HepG2 [5]): < 4.00
- Activity (HepG2 [5]): Dose-dependent effect
- selectivity ratio ([6]; HepG2 cells): > 123
- pIC50 (Entamoeba histolytica): 6.09
- IC50 (Entamoeba histolytica): 0.811 µM

Compound: CCc1ccc(C2OC(Cn3c([N+](=O)[O-])cnc3C)=NN2C(C)=O)cc1 (stereo not drawn)
- pIC50 (Entamoeba histolytica): 5.58
- IC50 (Entamoeba histolytica): 2.62 µM
